Patent publication US11760984B2, “CRISPR protein inhibitors” (THE BROAD INSTITUTE, INC., priority 2017, dated 2023)

Biological target: SpCas9 (Streptococcus pyogenes serotype M1, UniProt Q99ZW2)
Assay: Cas9 nuclease activity in EGFP disruption assay (U2OS.eGFP.PEST cells)
Assay type: cell-based
Design: host or cells: U2OS.eGFP-PEST
Details: 10 μM
Procedure: (§1) Cas9 Nuclease activity in EGFP disruption assay. Approximately 200,000 U2OS.eGFP-PEST cells were nucleofected with 400 ng of SpCas9 (Addgene Plasmid #43861) and 40 ng of sgRNA (pFYF1320 EGFP Site #1, Addgene Plasmid #47511) expressing plasmids along with a Td-tomato-encoding plasmid using the SE Cell Line 4D-Nucleofector™ X Kit (Lonza) according to the manufacturer's protocol. Approximately 20,000 transfected cells/well in 3 replicates were plated in a 96-well plate (Corning® 3904). Cells were allowed to grow in the indicated amount of compound or DMSO for 24 h post transfection. Cells were then fixed using 4% paraformaldehyde and imaged with the HCS NuclearMask™ Blue Stain (Life Technologies) as the nuclear counter-staining agent. Imaging was performed with an IXM 137204 ImageXpress Automated High Content Microscope (Molecular Devices) at 10× magnification under three excitation channels (blue, green and red) with 9 acquiring sites per well. Images were analyzed in the MetaXpress software and data were plotted using GraphPad Prism 6. The Z′-value was calculated following the formula: […]
Cas9 Nuclease activity in EGFP disruption assay. In some embodiments, a quantitative human cell-based reporter assay that enables rapid quantitation of targeted nuclease activities is used to characterize off-target cleavage of CRISPR protein-based RNA guided endonucleases. In this assay, the activities of nucleases targeted to a single integrated EGFP reporter gene can be quantified by assessing loss of fluorescence signal in human U2OS.EGFP cells caused by inactivating frameshift insertion/deletion (indel) mutations introduced by error prone non-homologous end-joining (NHEJ) repair of nuclease-induced double-stranded breaks (DSBs).
as §1, with “Approximately” for “Cas9 Nuclease activity in EGFP disruption assay. Approximately”

Sequence of SpCas9 (Q99ZW2 whole entry): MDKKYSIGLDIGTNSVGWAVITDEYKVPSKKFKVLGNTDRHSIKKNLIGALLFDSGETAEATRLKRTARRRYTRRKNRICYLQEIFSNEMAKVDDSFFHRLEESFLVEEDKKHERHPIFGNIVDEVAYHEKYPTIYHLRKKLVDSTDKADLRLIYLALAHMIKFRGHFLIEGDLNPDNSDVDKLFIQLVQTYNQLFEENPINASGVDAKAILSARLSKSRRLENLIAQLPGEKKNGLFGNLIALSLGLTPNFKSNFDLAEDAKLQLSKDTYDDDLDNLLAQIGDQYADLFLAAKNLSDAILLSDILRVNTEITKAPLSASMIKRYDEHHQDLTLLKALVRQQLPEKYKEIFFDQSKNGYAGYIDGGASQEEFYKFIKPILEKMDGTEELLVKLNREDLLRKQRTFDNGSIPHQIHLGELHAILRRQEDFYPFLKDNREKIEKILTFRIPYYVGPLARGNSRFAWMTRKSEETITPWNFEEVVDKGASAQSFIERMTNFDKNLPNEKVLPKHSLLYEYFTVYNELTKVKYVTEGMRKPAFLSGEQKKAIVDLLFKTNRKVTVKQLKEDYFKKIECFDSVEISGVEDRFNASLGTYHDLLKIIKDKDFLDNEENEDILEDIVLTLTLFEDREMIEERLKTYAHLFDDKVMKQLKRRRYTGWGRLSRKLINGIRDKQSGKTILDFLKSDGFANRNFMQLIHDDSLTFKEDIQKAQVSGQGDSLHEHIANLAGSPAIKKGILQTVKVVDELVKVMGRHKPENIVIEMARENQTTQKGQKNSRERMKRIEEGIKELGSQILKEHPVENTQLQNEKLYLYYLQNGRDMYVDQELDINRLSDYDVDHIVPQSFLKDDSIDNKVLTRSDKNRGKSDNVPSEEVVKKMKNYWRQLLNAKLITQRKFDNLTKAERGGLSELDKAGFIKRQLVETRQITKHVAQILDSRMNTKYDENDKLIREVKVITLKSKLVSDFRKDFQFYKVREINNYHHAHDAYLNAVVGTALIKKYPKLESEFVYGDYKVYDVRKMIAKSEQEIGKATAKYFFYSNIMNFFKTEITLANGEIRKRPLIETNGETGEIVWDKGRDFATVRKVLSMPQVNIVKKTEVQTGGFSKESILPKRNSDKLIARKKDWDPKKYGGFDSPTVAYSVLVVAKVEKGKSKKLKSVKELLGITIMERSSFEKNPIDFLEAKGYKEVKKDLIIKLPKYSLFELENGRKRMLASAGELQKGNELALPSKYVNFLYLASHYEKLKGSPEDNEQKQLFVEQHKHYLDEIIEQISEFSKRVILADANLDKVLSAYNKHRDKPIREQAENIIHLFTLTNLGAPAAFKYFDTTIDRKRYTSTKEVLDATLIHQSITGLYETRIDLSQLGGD

## OC[C@H]1Nc2ccc(-c3cccc(F)c3)cc2[C@H]2[C@@H]1CCN2Cc1ccncc1 [BRD7087, ((3aR,4S,9bR)-8-(3-Fluorophenyl)-1-(pyridin-4-ylmethyl)-2,3,3a,4,5,9b-hexahydro-1H-pyrrolo[3,2-c]quinolin-4-yl)methanol]
  inhibition at 10 µM: 44%
  inhibition of SpCas9 activity: 44%
